Source: ChEMBL document CHEMBL5325442, “Diterpenoids and Their Glycosides from the Stems of Tinospora crispa with Beta-Cell Protective Activity” (2023)
The source made the active and inactive calls. The calls are words filed in the database; no cut-off is given here.

Assays:
Type in all cases: functional
[1] = system: BRIN-BD11; test: Protection against dexamethasone-induced cytotoxicity in rat BRIN-BD11 cells assessed as increase in cell viability incubated for 48 hrs by WST-1 reagent based assay; details: dose <= 50.0 µM
[2] = system: BRIN-BD11; test: Protection against dexamethasone-induced cytotoxicity in rat BRIN-BD11 cells assessed as increase in cell viability at 400 uM incubated for 48 hrs by WST-1 reagent based assay
[3] = system: BRIN-BD11; test: Protection against dexamethasone-induced cytotoxicity in rat BRIN-BD11 cells assessed as increase in cell viability at 50 uM incubated for 48 hrs by WST-1 reagent based assay
[4] = system: BRIN-BD11; test: Protection against dexamethasone-induced cell cycle arrest in rat BRIN-BD11 cells assessed as restoration of dexamethasone-induced increase in G1 phase cells at 50 uM incubated for 48 hrs by RNase A staining based FACS analysis
[5] = system: BRIN-BD11; test: Protection against dexamethasone-induced cell cycle arrest in rat BRIN-BD11 cells assessed as restoration of dexamethasone-induced decrease in S phase cells at 50 uM incubated for 48 hrs by RNase A staining based FACS analysis
[6] = system: BRIN-BD11; test: Protection against dexamethasone-induced cell cycle arrest in rat BRIN-BD11 cells assessed as restoration of dexamethasone-induced decrease in G2/M phase cells at 50 uM incubated for 48 hrs by RNase A staining based FACS analysis

For `COC(=O)C1=C[C@H](O)C[C@H]2[C@]3(C)C[C@@H](c4ccoc4)OC(=O)[C@@H]3C[C@@H](O[C@@H]3O[C@H](CO)[C@@H](O)[C@H](O)[C@H]3O)[C@@]12C`, which Activity [1] is on record?
The Activity was “Active”.

How did the Activity [1] turn out when `C[C@@]12C[C@@H](c3ccoc3)OC(=O)[C@@H]1C[C@@H](O[C@@H]1O[C@H](CO)[C@@H](O)[C@H](O)[C@H]1O)[C@@]13COC(=O)C1=CCC[C@@H]23` was run?
Its Activity is “Active”.

How did the Activity [1] turn out when `COC(=O)C1=CCC[C@@H]2[C@](C)(CC(O[C@@H]3O[C@H](CO)[C@@H](O)[C@H](O)[C@H]3O)C3=CC(O)OC3=O)[C@H]3C[C@H](OC3=O)[C@]12C` (some centres not stated) was run?
Its Activity is “Active”.

For `CCCCNC(=O)NS(=O)(=O)c1ccc(C)cc1`, which Activity [2] is on record?
The Activity was “Active”.

With `COC(=O)C1=CCC[C@H]2[C@]3(C)C[C@@H](c4ccoc4)OC(=O)C3=CC(O[C@@H]3O[C@H](CO)[C@@H](O)[C@H](O)[C@H]3O)[C@@]12C` (some centres not stated) as the compound, how does the Activity [1] read?
Its Activity is “Active”.

With `C[C@@]12C[C@@H](c3ccoc3)OC(=O)[C@@H]1C[C@@H]1OC(=O)[C@@]3(O)[C@@H](O[C@@H]4O[C@H](CO)[C@@H](O)[C@H](O)[C@H]4O)CC[C@@H]2[C@@]13C` as the compound, how does the Activity [1] read?
The Activity was “Active”.

With `COC(=O)C1=CCC[C@H]2[C@]3(C)C[C@@H](C4=CC(O)OC4=O)OC(=O)[C@@H]3C[C@@H](O[C@@H]3O[C@H](CO)[C@@H](O)[C@H](O)[C@H]3O)[C@@]12C` (some centres not stated) as the compound, how does the Activity [3] read?
Its Activity is “Active”.

With `COC(=O)C1=CCC[C@H]2[C@]3(C)C[C@@H](c4ccoc4)OC(=O)[C@@H]3C[C@H](O[C@@H]3O[C@H](CO)[C@@H](O)[C@H](O)[C@H]3O)[C@@]12C` as the compound, how does the Activity [1] read?
Its Activity is “Dose-Dependent Effect”.

And the Activity [4]?
The Activity was “inactive”.

What about the Activity [5] of the same compound?
Its Activity is “inactive”.

What about the Activity [6] of the same compound?
The Activity was “inactive”.

With `COC(=O)C1=CCC[C@H]2[C@]3(C)C[C@@H](C4=C[C@H](OC)OC4=O)OC(=O)[C@@H]3CC(O[C@@H]3O[C@H](CO)[C@@H](O)[C@H](O)[C@H]3O)[C@@]12C` (some centres not stated) as the compound, how does the Activity [1] read?
The Activity was “Active”.

Which results are given for `COC(=O)C1=C[C@H](O)C[C@@H]2[C@@]1(C)[C@@H](O[C@@H]1O[C@H](CO)[C@@H](O)[C@H](O)[C@H]1O)C=C1C(=O)O[C@H](c3ccoc3)C[C@]12C`?
Activity [3]: Active; Activity [1]: Dose-Dependent Effect; Activity [4]: inactive; Activity [5]: inactive; Activity [6]: inactive

How did the Activity [1] turn out when `COC(=O)C1=C[C@H](O)C[C@H]2[C@]3(C)C[C@@H](c4ccoc4)OC(=O)[C@H]3C[C@H](O[C@@H]3O[C@H](CO)[C@@H](O)[C@H](O)[C@H]3O)[C@@]12C` was run?
Its Activity is “Active”.

How did the Activity [3] turn out when `COC(=O)C1=CCC[C@H]2[C@](C)(C[C@H](O[C@@H]3O[C@H](CO)[C@@H](O)[C@H](O)[C@H]3O)[C@@]3(O)[C@H](OC)O[C@H](OC)[C@H]3O)[C@H]3C[C@H](OC3=O)[C@@]12C` was run?
Its Activity is “inactive”.

Which Activity [3] does the source give for `COC(=O)C1=CCC[C@H]2[C@](C)(C[C@@H](O[C@@H]3O[C@H](CO[C@@H]4O[C@H](CO)[C@@H](O)[C@H](O)[C@H]4O)[C@@H](O)[C@H](O)[C@H]3O)c3ccoc3)[C@H]3C[C@H](OC3=O)[C@@]12C` here?
The Activity was “Active”.

And the Activity [4]?
Its Activity is “inactive”.

What about the Activity [5] of the same compound?
The Activity was “inactive”.

What about the Activity [6] of the same compound?
The Activity was “inactive”.

`C[C@@]1(CC(=O)O)[C@@H](C(=O)O)C[C@H]2OC(=O)C3=CCC[C@@H]1[C@]32C` was tested. Which Activity [3] did it give?
The Activity was “inactive”.

How did the Activity [3] turn out when `C[C@]12C[C@@H](c3ccoc3)OC(=O)[C@H]1CC[C@]1(C)[C@H]2[C@H]2C=C[C@]1(O[C@@H]1O[C@H](CO)[C@@H](O)[C@H](O)[C@H]1O)C(=O)O2` was run?
The Activity was “Active”.

And the Activity [1]?
Its Activity is “Dose-Dependent Effect”.

What about the Activity [4] of the same compound?
The Activity was “inactive”.

What about the Activity [5] of the same compound?
Its Activity is “inactive”.

What about the Activity [6] of the same compound?
The Activity was “inactive”.

Which Activity [3] does the source give for `COC(=O)C1=CCC[C@H]2[C@]3(C)C[C@@H](C4=CC(=O)OC4O)OC(=O)[C@@H]3C[C@@H](O[C@@H]3O[C@H](CO)[C@@H](O)[C@H](O)[C@H]3O)[C@@]12C` (some centres not stated) here?
Its Activity is “Active”.

And the Activity [4]?
The Activity was “inactive”.

What about the Activity [5] of the same compound?
Its Activity is “inactive”.

And the Activity [6]?
Its Activity is “inactive”.

How did the Activity [3] turn out when `COC(=O)C1=C[C@H](O)C[C@H]2[C@](C)(C[C@H](O[C@@H]3O[C@H](CO)[C@@H](O)[C@H](O)[C@H]3O)c3ccoc3)[C@H]3C[C@H](OC3=O)[C@@]12C` was run?
Its Activity is “Active”.

And the Activity [1]?
Its Activity is “Dose-Dependent Effect”.

And the Activity [4]?
Its Activity is “inactive”.

And the Activity [5]?
The Activity was “inactive”.

And the Activity [6]?
Its Activity is “inactive”.

How did the Activity [3] turn out when `COC(=O)C1=CCC[C@H]2[C@](C)(CC(O[C@@H]3O[C@H](CO)[C@@H](O)[C@H](O)[C@H]3O)c3ccoc3)[C@H]3C[C@H](OC3=O)[C@@]12C` (some centres not stated) was run?
Its Activity is “Active”.

And the Activity [1]?
The Activity was “Dose-Dependent Effect”.

And the Activity [4]?
Its Activity is “inactive”.

And the Activity [5]?
The Activity was “inactive”.

And the Activity [6]?
Its Activity is “inactive”.

Which Activity [3] does the source give for `COC(=O)C1=CCC[C@@H]2[C@](C)(CC(O[C@@H]3O[C@H](CO[C@@H]4O[C@H](CO)[C@@H](O)[C@H](O)[C@H]4O)[C@@H](O)[C@H](O)[C@H]3O)C3=CC(OC)OC3=O)[C@H]3C[C@H](OC3=O)[C@]12C` (some centres not stated) here?
The Activity was “Active”.

What about the Activity [4] of the same compound?
Its Activity is “inactive”.

And the Activity [5]?
The Activity was “inactive”.

And the Activity [6]?
Its Activity is “inactive”.
